These results are taken from PMC4605843, “Cell-Penetrating Peptides Selectively Cross the Blood-Brain Barrier In Vivo” (PLoS ONE, 2015).

“And” between values parts separate entries of the source, which are not always exact repeats. Equal values may be shown once.

Data set [1] in a line: In vitro metabolic stability in mouse liver homogenate. In kind it is in vitro ADME. The conditions noted are these: mouse liver homogenate 0.6 mg/ml protein (500 μl, 300 μg protein) + Krebs-Henseleit buffer pH 7.4, 0.1 mg/ml peptide, 37°C, 750 rpm, 0-120 min, HPLC-UV 215 nm. As to the method:
(§1) Prior to use, the protein content of each homogenate was determined using the Pierce Modified Lowry Protein Assay method (Thermo Scientific) to generate a stock solution with a protein concentration of 0.6 mg/ml by dilution with Krebs-Henseleit buffer (pH 7.4, Sigma-Aldrich). […] After sampling, enzymatic activity was terminated by additional heat inactivation at 95°C for 5 min, followed by cooling the samples in an ice bath for 30 min. […] Therefore, a solid phase extraction (SPE) protocol using an Oasis® WCX μelution plate (Waters, Zellik, Belgium) was used prior to HPLC-UV analysis. In the Supporting Information, the protocol of the SPE extraction procedure is described (S1 Text). Blank control solutions were prepared as described above, but without adding the peptide. To confirm chemical stability and mass balance, control reference solutions without tissue homogenate or with a prior heat inactivation were analyzed as well. The HPLC-UV system consisted of a Waters Alliance 2695 separation module and a Waters 2996 photodiode array (PDA) detector (detection from 190-400 nm, quantification at 215 nm), fitted with Empower 2 software for data handling (Waters). […] Appropriate gradients for separation of the peptides and their metabolites were created by mixtures of water (0.1% trifluoroacetic acid m/V) and acetonitrile (0.1% trifluoroacetic acid m/V).

The nature of data set [2]: In vitro metabolic stability in mouse brain homogenate. In kind it is in vitro ADME. The note with it: mouse brain homogenate 0.6 mg/ml protein (500 μl, 300 μg protein) + Krebs-Henseleit buffer pH 7.4, 0.1 mg/ml peptide, 37°C, 750 rpm, 0-120 min, HPLC-UV 215 nm. As to the method:
as §1

Data set [3] has as its system blood-brain barrier (BBB). Description: Classification of peptides according to their BBB influx. The conditions noted are these: classification method of ref [61] applied to the measured influx. From the text:
This peptide is derived from the murine vascular endothelial (VE)-cadherin, located in the adherens junctions between the vascular endothelial cells, and constitutes the 13 cytosolic amino acids closest to the membrane and five amino acids from the C-terminus of the transmembrane region (615–632).

The test system of data set [4] is cellular uptake. On the set-up: method as in Stalmans et al.[1]. The conditions noted are these: cell-penetrating (CP-) response, quantitative expression of cellular influx; ref Stalmans et al.[1]; cited from earlier work.
Data set [5] relates to blood-brain barrier (BBB). Description: Brain-to-blood transport (efflux) after intracerebroventricular injection. The conditions noted are these: ICR-CD-1 mice. As to the method: Female, ICR-CD-1 mice (Harlan Laboratories, Venray, The Netherlands), aged 7 to 10 weeks and weighing 28–36 g, were used during the in vivo BBB transport experiments. All animal experiments were performed in accordance with the Ethical Committee principles of laboratory animal welfare. The protocol was approved by the Ethical Committee of the Faculty of Veterinary Science of Ghent University (Permit Numbers: 2009–052 and 2014–128). Prior to experiments, mice were anesthetized by intraperitoneal injection of a 40% urethane solution (3 g/kg) (Sigma-Aldrich, Diegem, Belgium).
For evaluation of the efflux of the peptides out of the brain, 1 μl of a radioiodinated peptide solution (25000 cpm/μl) was injected in the lateral ventricle of anesthetized ICR-CD-1 mice at a speed of 360 μl/h for 10 s using a syringe pump (KDS100, KR analytical, Cheshire, UK). […] The brain half-time disappearance (t1/2,brain) was calculated from the linear regression of the natural logarithm of the residual radioactivity in brain versus time as follows: t1/2,brain=ln(2)/kout (5) with kout defined as the efflux rate constant calculated as the absolute value of the slope of the linear regression, applying first order kinetics. An extensive description of the protocol can be found elsewhere.

Data set [6] can be described thus: In vitro metabolic stability in mouse kidney homogenate. In kind it is in vitro ADME. The note with it: mouse kidney homogenate 0.6 mg/ml protein (500 μl, 300 μg protein) + Krebs-Henseleit buffer pH 7.4, 0.1 mg/ml peptide, 37°C, 750 rpm, 0-120 min, HPLC-UV 215 nm. As to the method: as §1
Data set [7] deals with blood-brain barrier (BBB). Description: Multiple time regression (MTR) analysis, blood-to-brain influx. It counts as in vivo, ICR-CD-1 mice. The note with it: whole brain, ± 65% confidence limits.
Experimental: Shortly, 200 μl of the radioiodinated CPP solution (30000 cpm/μl) was injected into the right jugular externalis vein of anesthetized ICR-CD-1 mice, which were then decapitated at 1, 3, 5, 10, 12.5 and 15 min post injection, with first and last time points performed in duplicate, after which brains were collected and measured for radioactivity using a gamma counter (Wallac Wizard 1470, Perkin Elmer). Shortly before decapitation, blood was collected from the left carotid artery, which was centrifuged (10000 g, 15 min at 21°C) in order to measure the radioactivity of blood and serum. Dermorphin and radioiodinated BSA were used as positive and negative control, respectively. The blood-to-brain entry during the experimental period of 15 min was evaluated by plotting the ratio of brain (Am(T)) and serum activity (Cp(T)), corrected for the brain weight and serum volume, respectively, versus the exposure time (Θ), expressing the theoretical steady state serum level of the iodinated peptide at a given serum concentration [37, 73]. The exposure time is calculated as the integral of the arterial serum radioactivity over time divided by the radioactivity at time t. The integral is calculated through the trapezoidal rule of the log-transformed data [73]. In the linear part of the curve, assuming a two-compartmental BBB model, data can be fitted using a linear model from which the unidirectional influx rate (Kin), also referred to as unidirectional blood to brain clearance K1 [46], and the initial brain distribution volume (Vi) can be determined using the following equation according to Gjedde and Patlak [37–40]: Am(T)/Cp(T)=Abrain(T)/Aserum(T)=Kin⋅Θ+Vi with Θ = ∫0TCp(t) ⋅ dt/Cp(T) (1)
Data set [8] relates to brain parenchyma and capillaries. Description: Capillary depletion method: brain parenchyma/capillary distribution. In kind it is in vivo, ICR-CD-1 mice. The note with it: capillary depletion, 10 min after IV injection of radiolabeled peptide (200 μl, 10000 cpm/μl), brain perfused with lactated Ringer's buffer, two ICR-CD-1 mice, gamma counter. The method, then: The capillary depletion method was used to evaluate the distribution of the peptide between the brain parenchyma and capillaries. In summary (see Materials and Methods in [45]), 200 μl of a radiolabeled peptide solution (10000 cpm/μl) was injected in the jugular externalis vein of two anesthetized ICR-CD-1 mice. Ten minutes after IV injection, mice were decapitated and brains were collected and measured for radioactivity. […] The resulting homogenate was weighed and centrifuged at 5400 g for 30 min at 4°C, resulting in a pellet, i.e. capillaries, and supernatant, i.e. parenchyma and fat tissue, which were weighed and measured in the gamma counter. […] Compartmental distribution was calculated as follows: Fractioncapillaries or parenchyma (%)=[…] or parenchyma/[…]×100 (4)

Data set [9] can be described thus: In vitro metabolic stability in mouse serum. It counts as in vitro ADME. The method, then:
as §1

For “AGYLLGKINLKPLAALAKKIL-NH2 [TP10-2, transportan analog differing one amino acid from TP10]”, the “Half-life, liver” value in [1] turned out to be 118.2 min. The “Half-life, brain” value in data set [2] was 102.3 min. Further, the BBB influx class entry in data set [3] is recorded as “class 2”. In addition, the CP-response in data set [4] is 0.749. In addition, the “kout (efflux transfer constant)” value in [5] (1 μl radioiodinated peptide (25000 cpm/μl) in lateral ventricle, 1-15 min, slope of ln(brain activity) vs time) was 0.06 ± 0.01 min⁻¹. Moreover, in data set [5] (ln(2)/kout after intracerebroventricular injection), the “t1/2,brain (half-time disappearance)” value was 11 min. Besides, in [6], the “Half-life, kidney” value is on record as 11.3 min. Also, the “Kin (unidirectional influx rate), linear Gjedde-Patlak model” value in [7] (125I-radioiodinated peptide, IV jugular vein 200 μl (30000 cpm/μl), anesthetized female ICR-CD-1 mice, 1-15 min, brain/serum radioactivity (gamma counter) vs exposure time, pVEC, SynB3, TP10: two experiments fitted together) is 0.36 µL/g/min and 0.36 ± 0.06 µL/g/min. In addition, the “Vi (initial brain distribution volume), linear Gjedde-Patlak model” value in data set [7] (125I-radioiodinated, IV, ICR-CD-1 mice, MTR 1-15 min) was found to be 10.07 ± 1.00 µL/g. In addition, in data set [8], the Parenchymal fraction is given as 84%. For the same substance, in [9] (mouse serum 500 μl + 400 μl Krebs-Henseleit buffer pH 7.4 + 100 μl 1 mg/ml peptide, 37°C, 750 rpm, sampling 0-120 min plus early points, HPLC-UV 215 nm, t1/2 = -ln(2)/slope), the “Half-life, serum” value worked out at 229.4 min. Moreover, in data set [9] (mouse serum in Krebs-Henseleit buffer pH 7.4, 37°C, SPE then HPLC-UV), the “Serum half-life” value is listed as 4 h.
